Data: patent US6967196B1, “Sulfonamide compounds and uses thereof” (Bristol-Myers Squibb Company, priority 1999, dated 2005)
Where a name gives a salt, the structure may show the parent alone. Read-outs that look alike come from different tables or passages of the source.

Test system: amyloid β production in transfected H4 (human neuroglioma) cells stably expressing APP constructs
Test: In vitro cell-based assay of inhibitors of amyloid β production (ELISA)
Method in brief: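 Transfected H4 cells stably expressing wild-type or variant APP were exposed to compounds (initial screen 10-100 μM) for about 16 h. Secreted Aβ in the medium was quantified by sandwich ELISA (C-terminal-specific monoclonal capture, N-terminal-specific polyclonal detection) against an Aβ standard curve; dose-response runs followed for actives.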

[1] = read-out: ACTIVITY (inhibitory concentration IC50, inhibition of amyloid β production)
[2] = Table B, transfected H4 cells stably expressing APP, approximately 16 hours incubation, amyloid β in medium by ELISA, read-out: ACTIVITY (inhibitory concentration IC50, inhibition of amyloid β production)
[3] = transfected H4 cells stably expressing APP, approximately 16 hours incubation, amyloid β in medium by ELISA, Table B, read-out: ACTIVITY (IC50, inhibition of amyloid β production)

SMILES | IC50 [3] [nM] | also measured
Cc1ccc(OCCCN2CCCCC2)c(CN(c2cc(F)ccc2F)S(=O)(=O)c2ccc(Cl)cc2)c1 [Example 232, 4-Chloro-N-(2,5-difluorophenyl)-N-{5-methyl-2-[3-(1-piperidinyl)propoxy]benzyl}benzenesulfonamide hydrochloride] | – | IC50 [1]: 25 to 50 nM
O=S(=O)(c1ccc(Cl)cc1)N(Cc1ncccc1OCCCN1CCCCC1)c1cc(F)ccc1F [Example 233, 4-Chloro-N-(2,5-difluorophenyl)-N-({3-[3-(1-piperidinyl)propoxy]-2-pyridinyl}methyl)benzenesulfonamide Hydrochloride] | – | IC50 [1]: 25 to 50 nM
O=S(=O)(c1ccc(Cl)cc1)N(Cc1ccccc1OCCCN1CCCCC1)c1cccc(Cl)c1 [Example 235, 4-Chloro-N-(3-chlorophenyl)-N-{2-[3-(1-piperidinyl)propoxy]benzyl}benzenesulfonamide Hydrochloride] | – | IC50 [1]: 25 to 50 nM
CC(c1ccccc1OCCCN1CCCCC1)N(c1cc(F)ccc1F)S(=O)(=O)c1ccc(Cl)cc1 (stereo not shown) [Example 236, 4-Chloro-N-(2,5-difluorophenyl)-N-(1-{2-[3-(1-piperidinyl)propoxy]phenyl}ethyl)benzenesulfonamide Hydrochloride] | – | IC50 [1]: 25 to 50 nM
O=S(=O)(c1ccc(Cl)cc1)N(Cc1ccccc1OCCCN1CCCCC1)c1cccc(Br)c1 [Example 237, N-(3-bromophenyl)-4-chloro-N-{2-[3-(1-piperidinyl)propoxy]benzyl}benzenesulfonamide Hydrochloride] | – | IC50 [1]: 25 to 50 nM
CSc1ccccc1N(Cc1ccccc1OCCCN1CCCCC1)S(=O)(=O)c1ccc(Cl)cc1 [Example 238, 4-Chloro-N-[2-(methylsulfanyl)phenyl]-N-{2-[3-(1-piperidinyl)propoxy]benzyl}benzenesulfonamide Hydrochloride] | – | IC50 [1]: 25 to 50 nM
CC(=O)Nc1nc(C)c(S(=O)(=O)N(Cc2ccccc2OCCCN2CCCCC2)c2cc(Cl)ccc2Cl)s1 [Example 259, N-{5-[(2,5-dichloro{2-[3-(1-piperidinyl)propoxy]benzyl}anilino)sulfonyl]-4-methyl-1,3-thiazol-2-yl}acetamide Hydrochloride] | – | IC50 [2]: 25 to 50 nM
O=S(=O)(/C=C/c1ccccc1)N(Cc1ccccc1OCCCN1CCCCC1)c1cc(Cl)ccc1Cl [Example 260, (E)-N-(2,5-dichlorophenyl)-2-phenyl-N-{2-[3-(1-piperidinyl)propoxy]benzyl}ethenesulfonamide hydrochloride] | – | IC50 [2]: 25 to 50 nM
O=S(=O)(Cc1ccccc1)N(Cc1ccccc1OCCCN1CCCCC1)c1cc(Cl)ccc1Cl [Example 261, N-(2,5-dichlorophenyl)(phenyl)-N-{2-[3-(1-piperidinyl)propoxy]benzyl}methanesulfonamide Hydrochloride] | – | IC50 [2]: 25 to 50 nM
O=S1(=O)c2cccc3cccc(c23)N1Cc1ccccc1OCCCN1CCCCC1 [Example 269, 2-{2-[3-(1-piperidinyl)propoxy]benzyl}-2H-naphtho[1,8-cd]isothiazole 1,1-Dioxide Hydrochloride] | 25 to 50 | –
O=S(=O)(c1ccc(Cl)cc1)N(Cc1ccccc1OCCCN1CCCCC1)C1CCOCC1 [Example 271, 4-Chloro-N-{2-[3-(1-piperidinyl)propoxy]benzyl}-N-tetrahydro-2H-pyran-4-ylbenzenesulfonamide hydrochloride] | 25 to 50 | –
O=S(=O)(c1ccc(Cl)cc1)N(Cc1ccc2ccccc2c1OCCCN1CCCCC1)c1cc(F)ccc1F [Example 272, 4-Chloro-N-(2,5-difluorophenyl)-N-({1-[3-(1-piperidinyl)propoxy]-2-naphthylmethyl)benzenesulfonamide Hydrochloride] | 25 to 50 | –
CN1CCCCC1CCOc1ccccc1CN(c1ccccc1)S(=O)(=O)c1ccc(Cl)cc1 (stereo not shown) [Example 276, 4-Chloro-N-{2-[2-(1-methyl-2-piperidinyl)ethoxy]benzyl}-N-phenylbenzenesulfonamide Hydrochloride] | 25 to 50 | –
CN1CCCC1CCOc1ccccc1CN(c1ccccc1)S(=O)(=O)c1ccc(Cl)cc1 (stereo not shown) [Example 277, 4-Chloro-N-{2-[2-(1-methyl-2-pyrrolidinyl)ethoxy]benzyl}-N-phenylbenzenesulfonamide Hydrochloride] | 25 to 50 | –
O=S(=O)(c1ccccc1)N(Cc1ccccc1OCCCN1CCC(O)C1)c1ccccc1 (stereo not shown) [Example 279, N-{2-[3-(3-hydroxy-1-pyrrolidinyl)propoxy]benzyl}-N-phenylbenzenesulfonamide Hydrochloride] | 25 to 50 | –
CC(C)(C)OC(=O)N1CCN(CCCOc2ccccc2CN(c2ccccc2)S(=O)(=O)c2ccc(Cl)cc2)CC1 [Example 288, Tert-butyl 4-{3-[2-({[(4 chlorophenyl)sulfonyl}anilino}methyl)phenoxy]propyl}-1-piperazinecarboxylate] | 25 to 50 | –
O=S(=O)(c1ccc(Cl)cc1)N(Cc1ccccc1OCCCN1CC=CCC1)c1ccccc1 [Example 289, 4-Chloro-N-{2-[3-(3,6-dihydro-1(2H)pyridinyl)propoxy]benzyl}-N-phenylbenzenesulfonamide Hydrochloride] | 25 to 50 | –
O=S(=O)(c1ccc(Cl)cc1)N(Cc1ccccc1OCCCN1CCC(Cc2ccccc2)CC1)c1ccccc1 [Example 290, N-{2-[3-(4-benzyl-1-piperidinyl)propoxy]benzyl}-4-chloro-N-phenylbenzenesulfonamide Hydrochloride] | 25 to 50 | –
O=S(=O)(c1ccc(Cl)cc1)N(Cc1ccccc1OCCCN1CCC1)c1ccccc1 [Example 292, N-{2-[3-(1-azetidinyl)propoxy]benzyl}-4-chloro-N-phenylbenzenesulfonamide Hydrochloride] | 25 to 50 | –
O=S(=O)(c1ccc(Cl)cc1)N(Cc1ccccc1OCCCNC1CC1)c1ccccc1 [Example 297, 4-Chloro-N-{2-[3-(cyclopropylamino)propoxy]benzyl}-N-phenylbenzenesulfonamide Hydrochloride] | 50 to 100 | –
O=S(=O)(c1ccc(Cl)cc1)N(Cc1ccccc1OCCCN1CCC(O)CC1)c1ccccc1 [Example 298, 4-Chloro-N-{2-[3-(4-hydroxy-1-piperidinyl)propoxy]benzyl}-N-phenylbenzenesulfonamide Hydrochloride] | 50 to 100 | –
CN1C2CCC1[C@@H](COc1ccccc1CN(c1ccccc1)S(=O)(=O)c1ccc(Cl)cc1)C2 (stereo partly drawn) [Example 300, 4-Chloro-N-(2-{[(2S)-7-methyl-7-azabicyclo[2.2.1]hept-2-yl]methoxy]benzyl)-N-phenylbenzenesulfonamide Hydrochloride] | 50 to 100 | –
O=S(=O)(c1ccc(Cl)cc1)N(Cc1ccccc1OCCCn1ccnc1)c1ccccc1 [Example 302, 4-Chloro-N-{2-[3-(1H-imidazol-1-yl)propoxy]benzyl}-N-phenylbenzenesulfonamide Hydrochloride] | 50 to 100 | –
CC1CC(C)CN(CCCOc2ccccc2CN(c2ccccc2)S(=O)(=O)c2ccc(Cl)cc2)C1 (stereo not shown) [Example 303, 4-Chloro-N-{2-[3-(3,5-dimethyl-1-piperidinyl)propoxy]benzyl}-N-phenylbenzenesulfonamide Hydrochloride] | 50 to 100 | –
O=S(=O)(c1ccc(Cl)cc1)N(Cc1ccccc1OCCCN1CCCCCC1)c1ccccc1 [Example 305, N-{2-[3-(1-azepanyl)propoxy]benzyl}-4-chloro-N-phenylbenzenesulfonamide Hydrochloride] | 50 to 100 | –
